According to US12383545B1, “Treatment of migraine” (priority 2018, dated 2025):

Legend:
[1] = system: participants with episodic migraine; test: Study A: Migraine-Specific Quality of Life Questionnaire (MSQ v2.1) domain scores; assay type: in vivo, human; design: key to MSQ v2.1 Role Function Restrictive domain score, Week 12, mean (SD) / MSQ v2.1 Role Function Restrictive domain score, change from baseline, mean (SD) / MSQ v2.1 Role Function Restrictive domain score, MMRM LS mean change (SE): 0–100 scale, higher = better quality of life; settings: for MSQ v2.1 Role Function Restrictive domain score, Week 12, mean (SD): mITT; for MSQ v2.1 Role Function Restrictive domain score, MMRM LS mean change (SE) / MSQ v2.1 Role Function Restrictive domain score, change from baseline, mean (SD): week 12, mITT; for MSQ v2.1 EF domain, improvement vs placebo / MSQ v2.1 RFP domain, improvement vs placebo: week 12
Source text: The Migraine-Specific Quality of Life Questionnaire Version 2.1 is one of the most frequently utilized disease-specific tools assessing the impact of migraine on HRQL. The MSQ is a validated tool that assess the impact of migraine on function (i.e., daily social and work-related activities) over the past 4 weeks across three dimensions: Role Function-Restrictive (RR, or “RFR”, relating to how migraines limit the patient's daily social and work related activities), Role Function-Preventive (RP, e.g., how migraines prevent the patient's daily social and work related activities), and Emotional Function (EF, e.g., the emotions associated with a patient's migraines). Patients respond to items using a 6-point scale: “none of the time,” “a little bit of the time,” “some of the time”, “a good bit of the time,” “most of the time” and “all of the time,” which are assigned scores of 1 to 6, respectively. Raw dimension scores are computed as a sum of item responses and rescaled from a 0 to 100 scale such that higher scores indicate better quality of life. See Bagley et al., Validating Migraine-Specific Quality of Life Questionnaire v2.1 in Episodic and Chronic Migraine, Headache, 2012 March; 52 (3): 409-21.
The primary efficacy endpoint was change from baseline in mean monthly migraine days across the 12-week treatment period. Secondary efficacy endpoints, tested in hierarchical order, were change from baseline in mean monthly headache days across the 12-week treatment period, change from baseline in mean monthly acute medication use days across the 12 week treatment period, ≥50% reduction in 3-month average of monthly migraine days, change from baseline in MSQ v 2.1 Role Function-Restrictive domain score at week 12, change from baseline in mean monthly Performance of Daily Activities domain score of the AIM-D across the 12-week treatment period, and change from baseline in mean monthly Physical Impairment domain score of the AIM-D across the 12-week treatment period. An exploratory analysis of the time course of efficacy for atogepant by 4-week intervals, based on the least square mean change from baseline for the number of monthly migraine days over the 12-week treatment period was also conducted.
A secondary endpoint measured the change from baseline in MSQ v2.1 Role Function Restrictive Domain Score at Week 12. The Migraine-Specific Quality of Life Questionnaire Version 2.1 is one of the most frequently utilized disease-specific tools assessing the impact of migraine on HRQL. The MSQ measures the impact of migraine on the patient's HRQL over the past 4 weeks across three dimensions: Role Function-Restrictive (RR), Role Function-Preventive (RP), and Emotional Function (EF).

[2] = system: participants with episodic migraine; test: Study B: HIT-6 total score and responder rates; assay type: in vivo, human; design: key to Change from Baseline in HIT-6 Total Score, LS Mean Δ from baseline: points on HIT-6 total score (range 36–78); negative = improvement; settings: for HIT-6 total score, LS mean change (95% confidence interval) / proportion of HIT-6 responders (≥5 points from baseline): Study B, 60 mg QD; for Change from Baseline in HIT-6 Total Score, LS Mean Δ from baseline / HIT-6 Total Score Responder Rates, % Responder: atogepant 60 mg; for Change from Baseline in HIT-6 Total Score, LS Mean Δ from baseline: mITT Population; for HIT-6 Total Score Responder Rates, % Responder: responder = ≥5 point improvement from baseline
Procedure: In embodiments, the present disclosure provides a method for preventing migraine (such as a method for preventing migraine in patients having fewer than fifteen migraine days per month) wherein atogepant is administered in an amount of 10 mg QD, 30 mg QD, or 60 mg QD, wherein administration of atogepant results in a reduction in a 6-item Headache Impact Test (HIT-6) disability score relative to baseline. The Headache Impact Test (HIT-6) is a well-known tool for assessing migraine intensity, and uses six questions to measure the adverse impact of headache on, for example, social functioning, role functioning, vitality, cognitive functioning, and psychological distress. Responses are based on frequency using a 5-point verbal response scale ranging from “never” to “always”. The HIT-6 total score is the sum of the responses, and ranges from 36 to 78. See Yang et al., Validation of the Headache Impact Test (HIT-6™) Across Episodic and Chronic Migraine, Cephalalgia 2011 February; 31 (3): 357-367. In embodiments, treatment with atogepant results in a greater than five (≥5) point decrease in HIT-6 disability score.
The proportion of HIT-6 responders (≥5 points from baseline) were 59.92% and 80.77% of participants in the first (week 4) and last (week 52) timepoints assessed, respectively. A responder on the HIT-6 was defined as a participant with a ≥5 point improvement from baseline.

## C[C@@H]1[C@H](c2c(F)ccc(F)c2F)C[C@H](NC(=O)c2cnc3c(c2)C[C@@]2(C3)C(=O)Nc3ncccc32)C(=O)N1CC(F)(F)F [atogepant]
[1]; 10 mg QD (symbol *), week 4, FIG. 11
  MSQ v2.1 RFR domain score, LSMD vs. placebo (95% CI): 8.6
[1]; 10 mg QD (symbol *), week 8, FIG. 11
  MSQ v2.1 RFR domain score, LSMD vs. placebo (95% CI): 11.3
[1]; 10 mg QD, Week 12
  MSQ v2.1 RFR domain score, LSMD vs. placebo (95% CI): 9.9
[1]; 10 mg QD
  MSQ v2.1 Role Function Restrictive domain score, Week 12, mean (SD): 75.6
  MSQ v2.1 Role Function Restrictive domain score, MMRM LS mean change (SE): 30.35
  MSQ v2.1 Role Function Restrictive domain score, change from baseline, mean (SD): 30.8
[1]; 10 mg QD, week 12, listed as Atogepant
  MSQ v2.1 RFR domain score, LSMD vs. placebo (95% CI): 9.90
[1]; 10 mg
  MSQ v2.1 EF domain, improvement vs placebo: 8.3
  MSQ v2.1 RFP domain, improvement vs placebo: 5.8
[1]; 30 mg QD (symbol †), week 4, FIG. 11
  MSQ v2.1 RFR domain score, LSMD vs. placebo (95% CI): 11.2
[1]; 30 mg QD (symbol †), week 8, FIG. 11
  MSQ v2.1 RFR domain score, LSMD vs. placebo (95% CI): 9.9
[1]; 30 mg QD, Week 12
  MSQ v2.1 RFR domain score, LSMD vs. placebo (95% CI): 10.1
[1]; 30 mg QD
  MSQ v2.1 Role Function Restrictive domain score, Week 12, mean (SD): 75.4
  MSQ v2.1 Role Function Restrictive domain score, MMRM LS mean change (SE): 30.53
  MSQ v2.1 Role Function Restrictive domain score, change from baseline, mean (SD): 31.1
[1]; 30 mg QD, week 12, listed as Atogepant
  MSQ v2.1 RFR domain score, LSMD vs. placebo (95% CI): 10.08
[1]; 30 mg
  MSQ v2.1 EF domain, improvement vs placebo: 9.7
  MSQ v2.1 RFP domain, improvement vs placebo: 6.9
[1]; 60 mg QD (symbol ‡), week 4, FIG. 11
  MSQ v2.1 RFR domain score, LSMD vs. placebo (95% CI): 12.3
[1]; 60 mg QD (symbol ‡), week 8, FIG. 11
  MSQ v2.1 RFR domain score, LSMD vs. placebo (95% CI): 10.8
[1]; 60 mg QD, Week 12
  MSQ v2.1 RFR domain score, LSMD vs. placebo (95% CI): 10.8
[1]; 60 mg QD
  MSQ v2.1 Role Function Restrictive domain score, Week 12, mean (SD): 78.0
  MSQ v2.1 Role Function Restrictive domain score, MMRM LS mean change (SE): 31.25
  MSQ v2.1 Role Function Restrictive domain score, change from baseline, mean (SD): 30.5
[1]; 60 mg QD, week 12, listed as Atogepant
  MSQ v2.1 RFR domain score, LSMD vs. placebo (95% CI): 10.80
[1]; 60 mg
  MSQ v2.1 EF domain, improvement vs placebo: 10.5
  MSQ v2.1 RFP domain, improvement vs placebo: 7.1
[2]; week 4
  HIT-6 total score, LS mean change (95% confidence interval): −7.63
  proportion of HIT-6 responders (≥5 points from baseline): 59.92%
[2]; week 52
  HIT-6 total score, LS mean change (95% confidence interval): −12.10
  proportion of HIT-6 responders (≥5 points from baseline): 80.77%
[2]; Week 4
  Change from Baseline in HIT-6 Total Score, LS Mean Δ from baseline: −7.63
  HIT-6 Total Score Responder Rates, % Responder: 59.92%
[2]; Week 8
  Change from Baseline in HIT-6 Total Score, LS Mean Δ from baseline: −9.14
  HIT-6 Total Score Responder Rates, % Responder: 66.60%
[2]; Week 12
  Change from Baseline in HIT-6 Total Score, LS Mean Δ from baseline: −6.60
  HIT-6 Total Score Responder Rates, % Responder: 69.21%
[2]; Week 16
  Change from Baseline in HIT-6 Total Score, LS Mean Δ from baseline: −10.15
  HIT-6 Total Score Responder Rates, % Responder: 71.65%
[2]; Week 20
  Change from Baseline in HIT-6 Total Score, LS Mean Δ from baseline: −10.56
  HIT-6 Total Score Responder Rates, % Responder: 73.98%
[2]; Week 24
  Change from Baseline in HIT-6 Total Score, LS Mean Δ from baseline: −10.55
  HIT-6 Total Score Responder Rates, % Responder: 74.00%
[2]; Week 28
  Change from Baseline in HIT-6 Total Score, LS Mean Δ from baseline: −10.99
  HIT-6 Total Score Responder Rates, % Responder: 76.56%
[2]; Week 32
  Change from Baseline in HIT-6 Total Score, LS Mean Δ from baseline: −11.15
  HIT-6 Total Score Responder Rates, % Responder: 77.89%
[2]; Week 36
  Change from Baseline in HIT-6 Total Score, LS Mean Δ from baseline: −11.29
  HIT-6 Total Score Responder Rates, % Responder: 75.62%
[2]; Week 40
  Change from Baseline in HIT-6 Total Score, LS Mean Δ from baseline: −11.76
  HIT-6 Total Score Responder Rates, % Responder: 80.71%
[2]; Week 44
  Change from Baseline in HIT-6 Total Score, LS Mean Δ from baseline: −11.46
  HIT-6 Total Score Responder Rates, % Responder: 78.39%
[2]; Week 48
  Change from Baseline in HIT-6 Total Score, LS Mean Δ from baseline: −11.86
  HIT-6 Total Score Responder Rates, % Responder: 80.11%
[2]; Week 52
  Change from Baseline in HIT-6 Total Score, LS Mean Δ from baseline: −12.10
  HIT-6 Total Score Responder Rates, % Responder: 80.77%
